# Data from PubChem BioAssay AID1845204 (Molecular Pharmacology Branch, DTP, NCI, 2023).
# System: HSSY-II tumor spheroid viability
# Test: Anticancer human tumor HSSY-II cell line growth inhibition;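 further: spheroids exposed to compounds for seven days before reading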;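 on viability, T/C: percent of DMSO vehicle control viability so 100% = untreated level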
# Settings: spheroids with HUVEC and MSC; for IC50: curve of first compound; for viability, T/C: stronger effect = lower value
# Method in brief: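 Complex tumor spheroids combined malignant cells with endothelial cells and mesenchymal stem cells. DNA-damaging drugs and DNA repair inhibitors were tested alone and in combination, at half-log dilutions down from clinical Cmax (top 10 microM if Cmax unknown), 0.25% DMSO final.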
structure (smiles),measurement,setting,value
O=C(c1cc(Cc2n[nH]c(=O)c3ccccc23)ccc1F)N1CCN(C(=O)C2CC2)CC1 + Cn1nnc2c(C(N)=O)ncn2c1=O,IC50,second compound 1 µM,6.1 µM
same,IC50,second compound 3.16 µM,3.28 µM
same,IC50,second compound 10 µM,2.48 µM
same,IC50,second compound 31.6 µM,0.751 µM
same,IC50,second compound 100 µM,< 0.0949 µM
same,"viability, T/C","second compound 1 µM, first compound 0.0949 µM",98%
same,"viability, T/C","second compound 1 µM, first compound 0.3 µM",93.6%
same,"viability, T/C","second compound 1 µM, first compound 0.949 µM",84.2%
same,"viability, T/C","second compound 1 µM, first compound 3 µM",63.6%
same,"viability, T/C","second compound 1 µM, first compound 9.49 µM",23.9%
same,"viability, T/C","second compound 1 µM, first compound 30 µM",59.1%
same,"viability, T/C","second compound 3.16 µM, first compound 0.0949 µM",94.9%
same,"viability, T/C","second compound 3.16 µM, first compound 0.3 µM",92.5%
same,"viability, T/C","second compound 3.16 µM, first compound 0.949 µM",81.9%
same,"viability, T/C","second compound 3.16 µM, first compound 3 µM",54.8%
same,"viability, T/C","second compound 3.16 µM, first compound 9.49 µM",20.1%
same,"viability, T/C","second compound 3.16 µM, first compound 30 µM",43.3%
same,"viability, T/C","second compound 10 µM, first compound 0.0949 µM",99.6%
same,"viability, T/C","second compound 10 µM, first compound 0.3 µM",93.3%
same,"viability, T/C","second compound 10 µM, first compound 0.949 µM",81.3%
same,"viability, T/C","second compound 10 µM, first compound 3 µM",46.5%
same,"viability, T/C","second compound 10 µM, first compound 9.49 µM",12%
same,"viability, T/C","second compound 10 µM, first compound 30 µM",56.4%
same,"viability, T/C","second compound 31.6 µM, first compound 0.0949 µM",95.5%
same,"viability, T/C","second compound 31.6 µM, first compound 0.3 µM",78.5%
same,"viability, T/C","second compound 31.6 µM, first compound 0.949 µM",44%
same,"viability, T/C","second compound 31.6 µM, first compound 3 µM",14%
same,"viability, T/C","second compound 31.6 µM, first compound 9.49 µM",11.3%
same,"viability, T/C","second compound 31.6 µM, first compound 30 µM",9.62%
same,"viability, T/C","second compound 100 µM, first compound 0.0949 µM",43.4%
same,"viability, T/C","second compound 100 µM, first compound 0.3 µM",25.2%
same,"viability, T/C","second compound 100 µM, first compound 0.949 µM",10.7%
same,"viability, T/C","second compound 100 µM, first compound 3 µM",10.1%
same,"viability, T/C","second compound 100 µM, first compound 9.49 µM",8.27%
same,"viability, T/C","second compound 100 µM, first compound 30 µM",9.08%
CC(C)n1c(=O)n(C)c2cnc3cc(F)c(-c4ccc(OCCCN5CCCCC5)nc4)cc3c21 + Cn1nnc2c(C(N)=O)ncn2c1=O,IC50,second compound 1 µM,6.4 µM
same,IC50,second compound 3.16 µM,6.7 µM
same,IC50,second compound 10 µM,6.54 µM
same,IC50,second compound 31.6 µM,5.86 µM
same,IC50,second compound 100 µM,9.48 µM
same,"viability, T/C","second compound 1 µM, first compound 0.0316 µM",100%
same,"viability, T/C","second compound 1 µM, first compound 0.1 µM",97.4%
same,"viability, T/C","second compound 1 µM, first compound 0.316 µM",97.2%
same,"viability, T/C","second compound 1 µM, first compound 1 µM",89.6%
same,"viability, T/C","second compound 1 µM, first compound 3.16 µM",72.7%
same,"viability, T/C","second compound 1 µM, first compound 10 µM",35.8%
same,"viability, T/C","second compound 3.16 µM, first compound 0.0316 µM",102%
same,"viability, T/C","second compound 3.16 µM, first compound 0.1 µM",102%
same,"viability, T/C","second compound 3.16 µM, first compound 0.316 µM",98%
same,"viability, T/C","second compound 3.16 µM, first compound 1 µM",93.7%
same,"viability, T/C","second compound 3.16 µM, first compound 3.16 µM",70.1%
same,"viability, T/C","second compound 3.16 µM, first compound 10 µM",39.2%
same,"viability, T/C","second compound 10 µM, first compound 0.0316 µM",103%
same,"viability, T/C","second compound 10 µM, first compound 0.1 µM",107%
same,"viability, T/C","second compound 10 µM, first compound 0.316 µM",97.4%
same,"viability, T/C","second compound 10 µM, first compound 1 µM",97.4%
same,"viability, T/C","second compound 10 µM, first compound 3.16 µM",73.7%
same,"viability, T/C","second compound 10 µM, first compound 10 µM",36%
same,"viability, T/C","second compound 31.6 µM, first compound 0.0316 µM",108%
same,"viability, T/C","second compound 31.6 µM, first compound 0.1 µM",96%
same,"viability, T/C","second compound 31.6 µM, first compound 0.316 µM",92.4%
same,"viability, T/C","second compound 31.6 µM, first compound 1 µM",89.9%
same,"viability, T/C","second compound 31.6 µM, first compound 3.16 µM",70.9%
same,"viability, T/C","second compound 31.6 µM, first compound 10 µM",32.4%
same,"viability, T/C","second compound 100 µM, first compound 0.0316 µM",88.5%
same,"viability, T/C","second compound 100 µM, first compound 0.1 µM",92.9%
same,"viability, T/C","second compound 100 µM, first compound 0.316 µM",86.5%
same,"viability, T/C","second compound 100 µM, first compound 1 µM",76.1%
same,"viability, T/C","second compound 100 µM, first compound 3.16 µM",69.6%
same,"viability, T/C","second compound 100 µM, first compound 10 µM",48.4%
